In US20190322676A1, “CERAMIDE GALACTOSYLTRANSFERASE INHIBITORS FOR THE TREATMENT OF DISEASE” (BioMarin Pharmaceutical Inc., priority 2016, published 2019) one finds IC50 data, which are given here for 14 compounds.

Where a name gives a salt, the structure may show the parent alone.

The first assay has as its target T1, human CGT (ceramide galactosyltransferase), CHO/CGT lysate (Homo sapiens, UniProt Q16880).
T1 construct: Full-length human CGT cDNA was cloned into the BamH1/Xho1 site of pcDNA3.1 (+); expressed in transfected cells; host or cells: Chinese hamster ovary (CHO) cells; lysate prepared with M-PER
T1 sequence (Q16880 21-541): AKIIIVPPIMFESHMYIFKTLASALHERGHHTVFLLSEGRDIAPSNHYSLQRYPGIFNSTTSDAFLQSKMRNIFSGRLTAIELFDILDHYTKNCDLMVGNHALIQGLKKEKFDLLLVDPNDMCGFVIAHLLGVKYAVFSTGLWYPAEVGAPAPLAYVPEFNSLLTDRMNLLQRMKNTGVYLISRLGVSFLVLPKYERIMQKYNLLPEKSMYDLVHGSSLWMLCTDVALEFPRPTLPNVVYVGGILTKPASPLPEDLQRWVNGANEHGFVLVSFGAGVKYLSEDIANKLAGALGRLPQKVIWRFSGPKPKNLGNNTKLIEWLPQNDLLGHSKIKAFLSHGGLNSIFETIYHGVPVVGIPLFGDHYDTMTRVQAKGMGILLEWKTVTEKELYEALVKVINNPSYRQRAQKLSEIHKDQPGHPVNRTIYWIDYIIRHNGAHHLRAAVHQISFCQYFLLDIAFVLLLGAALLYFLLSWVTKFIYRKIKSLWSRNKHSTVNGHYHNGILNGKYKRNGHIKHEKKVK
Kind of assay: CGT enzyme assay, RapidFire/MS/MS readout with 0.01% Tween added (Table 1 ranges with two asterisks **). Conditions: CGT enzymatic assay; range with two asterisks (**): RapidFire/MS/MS method with 0.01% Tween added. The format is biochemical. The method, then: Full-length human CGT cDNA was cloned into the BamH1/Xho1 site of pcDNA3.1 (+) mammalian expression vector (V90-20, Invitrogen, Carlsbad, Calif.) and the plasmid was transfected into Chinese hamster ovary (CHO) cells. Lysate was prepared using M-PER (Mammalian Protein Extraction Reagent, ThermoFisher Scientific, Grand Island, N.Y.) in the presence of a protease inhibitor cocktail (P8340, Sigma, Saint Louis, Mo.). Each 100 mm dish (100% confluent, approximately 1×10^7 cells) was lysed with 250 μL of M-PER containing protease inhibitors. Protein concentration was determined using a Pierce BCA protein assay kit (ThermoFisher Scientific). Four micrograms of CHO/CGT lysate was incubated with various concentrations of a compound (0.001 μM-50 μM) in 10 mM HEPES (pH 7.2) containing 35 μM dioleoylphosphatidylcholine, 5 mM MgCl2, 5 mM MnCl2, 1% BSA, 15 mM KCl, 1 mM EGTA, 8 mM CHAPS, 10 μM C6-NBD-dihydro-ceramide and 17.5 μM UDP-galactose in a final reaction volume of 20 μL at 37° C. for 1 hour. The final concentration of DMSO was 0.5% in both compound-treated and mock-treated samples. Tween 80 (0.01%) was optionally added to the reaction mixture to help solubilize the compounds. Each individual reaction was diluted with 80 μL of methanol:acetronitrile (1:3) containing 5 μM N-docdecanoyl-NBD-galactosylceramide (internal standard) to stop the reaction. 200 μL H2O:acetonitile (1:1) was added to precipitate the protein. After sufficient mixing, the plates were centrifuged at 2469 g for 38 minutes, 200 μL of supernatant was transferred to a LC/MS 96-deep well plate and a second spin was performed at 2469 g for 10 minutes. The final supernatant was injected in triplicate for RapidFire/MS/MS analysis.
Quantitative Analysis Using the RapidFire/MS/MS Method:
The quantitative analysis of C6-NBD-dihydro-ceramide and C6-NBD-dihydro-galactosylceramide was performed on a Rapid Fire 360 high-throughput mass spectrometry system (Agilent Technologies, Palo Alto, Calif.) coupled with a API4000^+ triple quadrupole mass spectrometer (Applied Biosystems, Concord, Ontario, Canada). RapidFire software packages, including RapidFire Control panel, RapidFire UI and RapidFire Integrator (Agilent Technologies), were used to control the RapidFire instrument and to process data. Analyst 1.6.2 software packages (Applied Biosystems) were used to control the MS system and acquire MS data. […] of sample was loaded on a micro-scale C4 solid-phase extraction (SPE) cartridge (Agilent Technologies) and salts were removed using water supplemented with 0.1% formic acid at the flow rate of 1.5 mL/min for 3 sec. C6-NBD-dihydro-ceramide and C6-NBD-dihydro-galactosylceramide were co-eluted into the mass spectrometer using acetonitrile containing 0.1% formic acid at the flow rate of 1.0 mL/min for 3 sec. The total cycle time of one injection was 8 secs. The MS/MS detection was performed in ESI negative mode. The mass transition of C6-NBD-dihydro-galactosylceramide was m/z 752.6→678.6 using a −40 V collision energy, the mass transition of C6-NBD-dihydro-ceramide was m/z 590.6→115.8 using a −40 V collision energy and the mass transition of N-docdecanoyl-NBD-galactosylceramide was m/z 820.9→746.3 using a −45 V collision energy.
The C6-NBD-dihydro-galactosylceramide reading was normalized first by dividing the peak area of C6-NBD-dihydro-galactosylceramide by the peak area of the internal standard, N-docdecanoyl-NBD-galactosylceramide. IC50 values (see Table 1, where data ranges with one asterix (*) correspond to analysis using the RapidFire/MS/MS method, and data ranges with two asterixes (**) correspond to analysis using the RapidFire/MS/MS method with 0.01% Tween added) were generated from sigmoidal dose-response curves (variable slope) with GraphPad Prism software (GraphPad Software, Inc., San Diego, Calif.) using the normalized peak areas of C6-NBD-dihydro-galactosylceramide or the percent inhibition of C6-NBD-dihydro-galactosylceramide accumulation relative to DMSO control. […]
`COc1cc(C(F)(F)[C@H](NS(=O)(=O)c2ccc(OCC3CCCCC3)cc2)C(=O)N2CCC(N)CC2)ccc1Br` [Compound 145-1, (R)—N-(3-(4-aminopiperidin-1-yl)-1-(4-bromo-3-methoxyphenyl)-1,1-difluoro-3-oxopropan-2-yl)-4-(cyclohexylmethoxy)benzenesulfonamide trifluoroacetate] returned an IC50 of less than 1 µM.
The same measure, in the same setting: the result for `COc1cc(C(F)(F)[C@H](NS(=O)(=O)c2ccc(OCC3CCCCC3)cc2)C(=O)N2CCC(N)CC2)ccc1-c1ccc(Cl)cc1` [Compound 146-1, (R)—N-(3-(4-aminopiperidin-1-yl)-1-(4′-chloro-2-methoxy-[1,1′-biphenyl]-4-yl)-1,1-difluoro-3-oxopropan-2-yl)-4-(cyclohexylmethoxy) benzenesulfonamide trifluoroacetate] reads less than 1 µM; that for `COc1cc(C(F)(F)[C@@H](NS(=O)(=O)c2ccc(OCC3CCCCC3)cc2)C(=O)N2CCC(N)CC2)ccc1-c1ccc(Cl)cc1` [Compound 146-2, (S)—N-(3-(4-aminopiperidin-1-yl)-1-(4′-chloro-2-methoxy-[1,1′-biphenyl]-4-yl)-1,1-difluoro-3-oxopropan-2-yl)-4-(cyclohexylmethoxy)benzenesulfonamide trifluoroacetate], 1 to 10 µM.
Take `O=C([C@@H](NS(=O)(=O)c1ccc2cc(OC3CCCC3)ccc2c1)C(F)(F)c1ccc(-c2ccc(Cl)cc2)cc1)N1C[C@H]2CNC[C@H]2C1` [Compound 147-1, N—((R)-1-(4′-chloro-[1,1′-biphenyl]-4-yl)-1,1-difluoro-3-((3aR,6aS)-hexahydropyrrolo[3,4-c]pyrrol-2(1H)-yl)-3-oxopropan-2-yl)-6-(cyclopentyloxy) naphthalene-2-sulfonamide trifluoroacetate]: the IC50 was less than 1 µM.
The compound `O=C([C@H](NS(=O)(=O)c1ccc2cc(OC3CCCC3)ccc2c1)C(F)(F)c1ccc(-c2ccc(Cl)cc2)cc1)N1C[C@H]2CNC[C@H]2C1` [Compound 147-2, N—((S)-1-(4′-chloro-[1,1′-biphenyl]-4-yl)-1,1-difluoro-3-((3aR,6aS)-hexahydropyrrolo[3,4-c]pyrrol-2(1H)-yl)-3-oxopropan-2-yl)-6-(cyclopentyloxy)naphthalene-2-sulfonamide trifluoroacetate] gave an IC50 of 10 to 30 µM.
`N[C@H]1CCN(C(=O)[C@@H](NS(=O)(=O)c2ccc3cc(OC4CCCC4)ccc3c2)C(F)(F)c2ccc(-c3ccc(Cl)cc3)cc2)C1` [Compound 148-1, N—((R)-3-((S)-3-aminopyrrolidin-1-yl)-1-(4′-chloro-[1,1′-biphenyl]-4-yl)-1,1-difluoro-3-oxopropan-2-yl)-6-(cyclopentyloxy)naphthalene-2-sulfonamide trifluoroacetate] registered an IC50 of 1 to 10 µM.
On the same count and under the same terms, the result for `N[C@H]1CCN(C(=O)[C@H](NS(=O)(=O)c2ccc3cc(OC4CCCC4)ccc3c2)C(F)(F)c2ccc(-c3ccc(Cl)cc3)cc2)C1` [Compound 148-2, N—((S)-3-((S)-3-aminopyrrolidin-1-yl)-1-(4′-chloro-[1,1′-biphenyl]-4-yl)-1,1-difluoro-3-oxopropan-2-yl)-6-(cyclopentyloxy)naphthalene-2-sulfonamide trifluoroacetate] reads 10 to 30 µM.

Still in this assay, the particulars now being: CGT enzyme assay, RapidFire/MS/MS method with 0.01% Tween added (range with two asterisks **).
For `COc1cc(C(F)(F)[C@H](NS(=O)(=O)c2ccc(OCC3CCCCC3)cc2)C(=O)N2C3CCC2CC(N)C3)ccc1-c1ccc(Cl)cc1` (stereo partly drawn) [Compound 142-1, N-((2R)-3-(3-amino-8-azabicyclo[3.2.1]octan-8-yl)-1-(4′-chloro-2-methoxy-[1,1′-biphenyl]-4-yl)-1,1-difluoro-3-oxopropan-2-yl)-4-(cyclohexylmethoxy) benzenesulfonamide trifluoroacetate], the IC50 was less than 1 µM.
`COc1cc(C(F)(F)[C@@H](NS(=O)(=O)c2ccc(OCC3CCCCC3)cc2)C(=O)N2C3CCC2CC(N)C3)ccc1-c1ccc(Cl)cc1` (stereo partly drawn) [Compound 142-2, N-((2S)-3-(3-amino-8-azabicyclo[3.2.1]octan-8-yl)-1-(4′-chloro-2-methoxy-[1,1′-biphenyl]-4-yl)-1,1-difluoro-3-oxopropan-2-yl)-4-(cyclohexylmethoxy)benzenesulfonamide trifluoroacetate] showed a 50% inhibitory concentration (IC50) of 1 to 10 µM.
Still for that read-out and setting: the result for `COc1cc(C(F)(F)[C@H](NS(=O)(=O)c2ccc3cc(OC4CCCC4)ccc3c2)C(=O)N2CCC(N)CC2)ccc1Br` [Compound 143-1, (R)—N-(3-(4-aminopiperidin-1-yl)-1-(4-bromo-3-methoxyphenyl)-1,1-difluoro-3-oxopropan-2-yl)-6-(cyclopentyloxy)naphthalene-2-sulfonamide trifluoroacetate] reads 1 to 10 µM; that for `COc1cc(C(F)(F)[C@@H](NS(=O)(=O)c2ccc3cc(OC4CCCC4)ccc3c2)C(=O)N2CCC(N)CC2)ccc1Br` [Compound 143-2, (S)—N-(3-(4-aminopiperidin-1-yl)-1-(4-bromo-3-methoxyphenyl)-1,1-difluoro-3-oxopropan-2-yl)-6-(cyclopentyloxy) naphthalene-2-sulfonamide trifluoroacetate], 1 to 10 µM; that for `COc1cc(C(F)(F)[C@H](NS(=O)(=O)c2ccc3cc(OC4CCCC4)ccc3c2)C(=O)N2CCC(N)CC2)ccc1-c1ccc(Cl)cc1` [Compound 144-1, (R)—N-(3-(4-aminopiperidin-1-yl)-1-(4′-chloro-2-methoxy-[1,1′-biphenyl]-4-yl)-1,1-difluoro-3-oxopropan-2-yl)-6-(cyclopentyloxy)naphthalene-2-sulfonamide trifluoroacetate], less than 1 µM.
Same read-out and setting: the result for `COc1cc(C(F)(F)[C@@H](NS(=O)(=O)c2ccc3cc(OC4CCCC4)ccc3c2)C(=O)N2CCC(N)CC2)ccc1-c1ccc(Cl)cc1` [Compound 144-2, (S)—N-(3-(4-aminopiperidin-1-yl)-1-(4′-chloro-2-methoxy-[1,1′-biphenyl]-4-yl)-1,1-difluoro-3-oxopropan-2-yl)-6-(cyclopentyloxy) naphthalene-2-sulfonamide trifluoroacetate] reads 1 to 10 µM; that for `COc1cc(C(F)(F)[C@@H](NS(=O)(=O)c2ccc(OCC3CCCCC3)cc2)C(=O)N2CCC(N)CC2)ccc1Br` [Compound 145-2, (S)—N-(3-(4-aminopiperidin-1-yl)-1-(4-bromo-3-methoxyphenyl)-1,1-difluoro-3-oxopropan-2-yl)-4-(cyclohexylmethoxy) benzenesulfonamide trifluoroacetate], 30 to 100 µM.

In general, IC50 refers to the concentration needed to halve the response being measured. A high value points to weaker potency in that assay.
